# Source: patent publication US5968513A (priority 1996, dated 1999)
# B1: partially purified native β-chain: crude preparation of native β-hCG (protein, UniProt P0DN86 21-165, looked up)
# Choriogonadotropin subunit …: SKEPLRPRCRPINATLAVEKEGCPVCITVNTTICAGYCPTMTRVLQGVLPALPQVVCNYRDVRFESIRLPGCPRGVNPVVSYAVALSCQCALCRRSTTDCGGPKDHPLTCDDPRFQDSSSSKAPPPSLPSPSRLPGPSDTPILPQ
# modifications: native, partially purified
# notes: crude preparation of native β-hCG
# Tested on: Hematopoietic progenitor cells from normal bone marrow and cord blood
# Assay: Clonogenic (colony) assays of hematopoietic progenitor cells in methylcellulose (CFU-MIX, BFU-e, CFU-GM)
# Format: cell-based, human
# Details: hCG preparations 200 IU/ml, subunits and peptides 100 μg/ml, 10 days, aggregates of more than 50 cells counted
# Text: Hematopoietic progenitor cells (2×10^5 cell/ml) were isolated from normal bone marrow and cord blood and seeded in methylcellulose. […] Aggregates containing more than 50 cells after 10 days of culture were counted as colonies.
Molecule,"growth of hematopoietic progenitors (pro-hematopoietic activity, colony numbers)","growth of hematopoietic progenitors (pro-hematopoietic activity, colony numbers) (listed as whole β-chain)"
"α-hCG peptide 88-92: α-hCG peptide of amino acids 88-92 (YYHKS; UniProt P01215 112-116, looked up, fragment)",little or no effects,
"β-hCG peptide 7-40: β-hCG peptide of amino acids 7-40 (PRCRPINATLAVEKEGCPVCITVNTTICAGYCPT; UniProt P0DN86 27-60, looked up, fragment)",little or no effects,
"β-hCG peptide 34-49: β-hCG peptide of amino acids 34-49 (CAGYCPTMTRVLQGVL; UniProt P0DN86 54-69, looked up, fragment)",little or no effects,
"β-hCG peptide 38-57: β-hCG peptide of amino acids 38-57 (CPTMTRVLQGVLPALPQVVC; UniProt P0DN86 58-77, looked up, fragment)",little or no effects,
"β-hCG peptide 57-93: β-hCG peptide of amino acids 57-93 (CNYRDVRFESIRLPGCPRGVNPVVSYAVALSCQCALC; UniProt P0DN86 77-113, looked up, fragment)",little or no effects,
β-hCG peptide 74-95: β-hCG peptide of amino acids 74-95,little or no effects,
"β-hCG peptide 100-110: β-hCG peptide of amino acids 100-110 (CGGPKDHPLTC; UniProt P0DN86 120-130, looked up, fragment)",little or no effects,
B1,directly promoted,considerable pro-hematopoietic activity
